Data from patent US9486472B2, “Methods for modulating neuronal responses” (UNIVERSITY OF BRITISH COLUMBIA CANADA, priority 2003, dated 2016).
No end group written: not given here.

Experiments:
hippocampal neurons = test: NMDA- or STS-induced apoptosis in cultured hippocampal neurons (Cell Death ELISA, 11-dUTP, PI staining); assay type: cell-based, rat; settings: 100 μM NMDA + 10 μM glycine 1 h, read at 24 h; APV 50 μM; sucrose 0.4 M; myr-Dyn 100 μM; R2-CT 1 μM with Pep-1
Description: (§1) Hippocampi were rapidly removed from embryonic E l 8 Sprague Dawley rats and pooled prior to trituration. Hippocampal cell suspensions were plated onto poly-Dlysine coated culture dishes or glass coverslips and grown in Neurobasal™ media 10 (Invitrogen) for 14 days in vitro (DIV). The media from mature 14 DIV neurons was removed and replaced with 100 μM NMDA plus 10 μM glycine for 1 h at 37° C. prior to restoring neurons to the defined growth media. Twenty four hours after NMDA/glycine application, neurons were processed using cell death assays. NMDA-induced [Ca^2+]i responses were evoked and measured using methods described previously^26.
Apoptosis quantification: NMDA-induced apoptosis was quantified either using a Cell Death Detection Elisa Plus Kit (Roche Applied Sciences), which is based on the in vitro determination of cytoplasmic histone-associated DNA fragments, or using TdT mediated addition of biotinylated 11-dUTP to the free 3′-OH ends of DNA. Absorbance readings for both assays were carried out using a microplate reader.
Propidium Iodide (PI) staining of nuclei: After the induction of apoptosis, cells were fixed with 4% parafonnaldehyde/4% sucrose for 10 min followed by ice cold acetone for 1 min, and then stained with […] PI in Dulbecco's PBS for 30 min. Stained coverslips were mounted onto glass slides and viewed with a Leica fluorescence microscope to identify condensed nuclei. Cells with condensed nuclei were counted as apoptotic and the percentage of apoptotic cells to the total number of cells was calculated to give a semi-quantitative analysis, expressed as percentage of apoptosis.
A short peptide (YKEGYNVYGIE (SEQ ID NO. 2)) corresponding to amino acid residues from 869 to 879 of the C-terminus of GluR2 (R2-CT) was synthesized and incubated with a carrier protein (Pep-1)23 at a ratio of 1:20 in Dulbecco's modified Eagle's medium
(DMEM, Gibco) at 37° C. in a humidified atmosphere containing 5% CO2 for 30 min to allow the formation of R2-CT/Pep-1 complex. Hippocampal neurons (DW 12-14) were then overlaid with the preformed complex to reach a final R2-CT concentration of 1 μM and further incubated for 1 h before experiments commenced. Receptor Trafficking Assays

NMDA receptor channel = biological target: T1, NMDA receptor channel (Rattus norvegicus, UniProt P35439); test: NMDA-evoked [Ca2+]i responses (Fura-2); assay type: cell-based; settings: NMDA 100 μM, 500 ms puffs; sucrose 400 mM in bath
T1 construct: we loaded hippocampal neurons with the intracellular Ca2+ dye, Fura-2; endogenous in cells; host or cells: primary rat hippocampal neurons (E18 Sprague Dawley)
Description: as §1

Akt = Akt phosphorylation at serine 473 (Western blot); assay type: cell-based, rat
Description: Immunoprecipitation and Western blotting were carried out essentially as previously reported.^14 Proteins from cerebral cortex, hippocampal slices, cultured hippocampal neurons or transfected HEK293 cells were solubilized in RIPA buffer containing either 1% SDS (plus 5 min boiling; denaturing conditions) or 1% DOC (non-denaturing conditions). For immunoprecipitation, 500 μg of protein from these tissue lysates was incubated with their respective antibodies in 500 μl of RIPA buffer for 4 h at 4° C. Protein A-sepharose was added to the mixture and incubated for an additional 2 h. The complex was isolated by centrifugation and washed three times. Proteins eluted from the sepharose beads were subjected to SDS-PAGE and immunoblotting using their respective antibodies. For sequential re-probing of the same blots, the membranes were stripped of the initial primary and secondary antibodies and subjected to immunoblotting with another antibody. Blots were developed using enhanced chemiluminescence detection (Amersham). Band intensities were quantified using Scion Image PC software.
The serine/threonine kinase Akt/PKB has been implicated in protecting neurons from apoptotic cell death^17 and inhibition of this kinase activity has been suspected to be involved in NMDA receptor-mediated apoptosis^18. […]

transferrin receptor = test: Transferrin receptor endocytosis assay; assay type: cell-based, rat; settings: fluorescently-labeled transferrin 30 min; sucrose 0.4 M; R2-CT+Pep-1 one hour prior to and during
Description: Transferrin receptor endocytosis assay: To assess the effect of endocytosis inhibitors on transferrin receptor endocytosis, hippocampal neurons were incubated with […] Alexa-A488 conjugated transferrin (Molecular Probes) for 30 min at 37° C. in the presence or absence of endocytosis inhibitors. Internalized receptors were then viewed with a Leica fluorescence microscope.

pp60 c-Src = pp60 c-Src (Homo sapiens, UniProt P12931); test: In vitro kinase assay with active recombinant Src; assay type: biochemical; settings: GST fusion protein as substrate
Description: FIGS. 7 A-D. Insulin increases phosphorylation of tyrosine residues within the GluR2 carboxyl terminal (CT) region. A. In vitro tyrosine phosphorylation of the GluR2 CT. GST fusion proteins of the GluR1 CT (GST-GluR1CT), the GluR2 CT (GST-GluR2CT), residues 869-876 (YKEGYNVYG (SEQ ID NO. 4)) of the GluR2 CT (GST-GluR23Y), which contains a cluster of three tyrosine residues (Y869, Y873, and Y876) and the same amino acid stretch of the GluR2 CT with its tyrosine residues replaced by alanines (GST-GluR23A), along with the GST back bone (GST) as control, were incubated in the absence (−) or presence (+) of active recombinant pp60 c-Src. Phosphorylation products were immunoblotted using an anti-phosphotyrosine antibody (top panel). […] B. Expression levels of HA-GluR2 and HA-GluR23Y-3A (where tyrosines 869, 873 and 876 were mutated to alanines) 48 h after transient transfection into HEK293 cells were determined by a cell ELISA assay using permeabilized cells. C. HEK293 cells transiently transfected with HA-GluR1, HA-GluR2 or HA-GluR23Y-3A, along with empty vector (mock transfection) as control. Forty-eight hours later, the cells were treated with or without 0.5 μM insulin for 10 min. The lysates were then subjected to immunoprecipitation with an anti-HA antibody under denaturing conditions and immunoblotting with an anti-phosphotyrosine antibody (Top blot; IB: PY). […]

[1] = tested on: CA1 neurons in hippocampal slices; test: Insulin-induced depression of AMPA receptor-mediated EPSCs, whole-cell recording of CA1 neurons; assay type: cell-based, rat; settings: 100 μg/ml in recording pipette; insulin 0.5 μM in bath
Description: GST-GluR23Y and GST-GluR23A were constructed by subcloning corresponding PCR fragments into pGEX 4T-1 vectors. GST fusion proteins were expressed in DH5α E. coli and purified from bacterial lysates according to the manufacturer's protocol (Pharmacia). Products were dialyzed in PBS and concentrated using Microcon-10 columns (Amicon) for intracellular application during whole-cell recordings.
Hippocampal slices (400 μm thickness) were prepared from Sprague-Dawley rats aged 16-26 postnatal days and perfused at room temperature with artificial cerebrospinal fluid containing (mM): 126 NaCl, 26 NaHCO3, 10 glucose, 3 KCl, 1.2 KH2PO4, 1 MgCl2, and 1 CaCl2, saturated with 95% O2/5% CO2^14. The recording pipettes (4-5 MO) were filled with solution containing (mM): 135 CsCl, 10 HEPES, 5 QX-314, 4 Mg-ATP, 2 MgCl2, 0.5 EGTA, 0.2 GTP and 0.1 CaCl2, pH 7.4, 310 mOsm. Whole-cell recording of CA1 neurons and the induction of LFS-LTD were performed as previously described.^14 […]

rats = settings: IV 60 min prior to test session; versus saline
Description: A. Rats maintained on a restricted feeding schedule were trained to lever-press for food pellets (45 mg) on a fixed-ratio 2 (FR2) schedule during 2-hour test sessions. Rats received IV injections of saline, GluR2-3A, or GluR2-3Y, in a counterbalanced order, 60 min prior to the test session. […] B. Rats were first trained to self-administer d-amphetamine (0.2 mg/infusion) via a jugular catheter on an FR2 schedule of reinforcement. Once responding in the 3 hour test sessions had stabilized, the rats were then trained on a Progressive Ratio Schedule in which successively more responses were required to obtain each successive reinforcement. […] Once stable Break point values were established, rats received IV injections of saline, GluR2-3A, or GluR2-3Y, in a counterbalanced order, 60 min prior to the test session.

Sprague-Dawley rats = test: Transient focal ischemia model (MCA occlusion), TUNEL staining and neurological exam; assay type: in vivo, rat; settings: 10 min prior to MCA occlusion; 3 nmoles/g
Description: The procedure was performed essentially as described previously (70). Briefly, adult male Sprague-Dawley rats between 280 and 320 g (20 h fasted weight) were anesthetized with an inhaled mixture of 4% isofluorane, in 30% oxygen balanced nitrous oxide, and maintained on 1.5% isofluorane. Bronchial secretions were minimized by administering 0.5 mg/kg of atropine intraperitoneally. […] The experimenter was blinded to the identity of the treatment groups for all surgeries and down-stream experiments. Under a dissection microscope, the common carotid artery (CCA), external carotid artery (ECA), and internal carotid artery (ICA) were exposed and dissected. […] Rectal temperature, and blood pressure measured with a tail cuff were measured before treatment, 15 min post injection, 50 min post injection, and 15 min post MCA occlusion. The plasma pH, O2, and CO2 were measured with a Rapidlab™ 348 blood gas analyzer (Bayer Diagnostics) in some animals to ensure that the gas flow rates used were appropriate and yielded reproducible blood gases. […]
At day 1 post MCAo rats were anesthetized with 1.5 mL of 25% urethane and were perfused with 100 mL of 0.9% saline followed by 120 mLs of 4% paraformaldehyde in PBS. […] The slices were scored for number of cells that stained positive for TMR-TUNEL per field of view at 10× magnification. […]

Compound: N[C@@H](CCCP(=O)(O)O)C(=O)O [APV, reference compound]
- NMDA-induced apoptosis (hippocampal neurons): fully blocked

Compound: OC[C@H]1O[C@@](CO)(O[C@H]2O[C@H](CO)[C@@H](O)[C@H](O)[C@H]2O)[C@@H](O)[C@@H]1O [sucrose]
- NMDA-induced apoptosis (hippocampal neurons): dramatically reduced
- NMDA-evoked [Ca2+]i responses (NMDA receptor channel): did not significantly alter NMDA-evoked [Ca^2+]i responses
- NMDA-induced reduction in S473 phosphorylated Akt (Akt; hypertonic sucrose): largely prevented
- STS-induced reduction of Akt phosphorylation (Akt; sucrose treatment): had no effect on the reduction of Akt phosphorylation following STS treatment
- transferrin receptor endocytosis (transferrin receptor): eliminated

Compound: GSTAKEGANVAG [GST-GluR23A, mutant counterpart with tyrosines replaced by alanines, control, reference compound]
- tyrosine phosphorylation by recombinant Src kinase (pp60 c-Src): abolished
- insulin-induced EPSC depression [1]: had no effect

Compound: YGRKKRRQRRRAKEGANVAGIE [Tat-GluR2-3A, YGRKKRRQRRR-AKEGANVAGIE, reference compound]
- Break Point measures for drug-reward (rats): no significant differences in the Break Point measures for drug-reward
- total number of responses for food reward (rats): no significant differences in total number of responses for food reward
- mean arterial blood pressure (MABP) versus saline (Sprague-Dawley rats): significantly lower mean arterial blood pressure
